Assay results: publication PMC13371181, “A paracrine-to-autocrine shunt of GREM1 fuels colorectal cancer metastasis via ACVR1C” (Molecular Cancer, 2026)
Entries after “also recorded” stand apart in the source; their conditions may differ.

What was measured:
HCT116 and SW480 cells [1] = assay: EMT markers by immunoblotting and RT–qPCR; format: cell-based, human; conditions: GREM1-CM + GREM1 BAb, + SB505124 (1 µM) or + different concentrations of sb4 (sb4: immunoblotting)
Protocol: (§1) To investigate the effect of secreted GREM1 on CRC cells, an in vitro GREM1 secretion system was established using HEK293 cells. Stably GREM1-expressing cells (pcDNA3.1-GREM1) and empty-vector transfected cells (pcDNA3.1) were cultured in DMEM/F12 medium with 10% FBS until 40% confluence. After complete removal of the normal culture medium, HEK293-GREM1 and HEK293-Vec cells were continuously cultured in DMEM/F12 medium without FBS for 5 days before medium collection. GREM1 or Vector conditioned medium (GREM1-CM/Vec-CM) was then centrifuged at 1000 rpm for 30 min and the supernatant was collected for further study.
(§2) Protein was extracted from the cells with RIPA buffer (Beyotime, P0018) or NP40 lysis buffer (Beyotime, P0013F) and separated by SDS-PAGE, and transferred to polyvinylidene difluoride membranes. […] Band intensity was quantified using Fiji (ImageJ) by grayscale analysis.
Total RNA was extracted using Trizol reagent (Invitrogen, 15596026). […] The SYBR Green Premix Pro Taq HS qPCR Kit (Accurate Biology, AG11701) was then used to quantify mRNA expression according to the manufacturer’s instructions. All results were calculated using the 2^−ΔΔCt method. […]

SW480 cells [2] = assay: Scratch assay, SW480; format: cell-based, human; conditions: SW480, scratch assay 48 h; n = 3 independent experiments
Protocol: as §1
(§3) Cells were seeded into 6-well plates after centrifugation and digestion with 0.05% trypsin. When the cell density reached 90%, three vertical lines were scratched in each well with a 10 µL pipette tip and the floating cells were gently washed away with 1×PBS. Complete medium was added, and images of the scratch area were taken at 0 h. Three different fields of view were selected for each well. After photography, the medium was replaced with serum-free medium. Wound healing was documented at the same location after 24–48 h of incubation.

[3] = tested on: type I TGFβ/Activin receptors; conditions: SB505124; cited from earlier work
Protocol: Fig. 3 Secretory GREM1 binding of ACVR1C induces EMT via SMAD2/3 pathway. A, RNA sequencing was performed on HCT116 cells treated with GREM1 conditioned medium (GREM1-CM) or vector control conditioned medium (Vec-CM), followed by GSEA of the C2 gene sets. NES, normalized enrichment score; all P values equal to 0. B, Activation levels of the ACVR1C pathway markers (p-SMAD2/3 and SMAD2/3), as well as expression of the epithelial marker (E-CAD) and the mesenchymal markers (SNAIL, ZEB1, and β-CAT) were compared by immunoblotting analysis in SW480 and HCT116 cells treated with Vec-CM, GREM1-CM, GRE ...

SW480 cells [4] = assay: GREM1 expression in SW480 cells after rhGREM1, RT–qPCR; format: cell-based, human; conditions: n = 3 biological replicates
Protocol: Total RNA was extracted using Trizol reagent (Invitrogen, 15596026). According to the instructions, cDNA was generated using the PrimeScript RT reagent Kit with gDNA Eraser (Accurate Biology, AG11706). The SYBR Green Premix Pro Taq HS qPCR Kit (Accurate Biology, AG11701) was then used to quantify mRNA expression according to the manufacturer’s instructions. All results were calculated using the 2^−ΔΔCt method. Primers used in the study are listed in Supplementary Table 1.

HCT116 and SW480 cells [5] = assay: Transwell invasion assay; format: cell-based, human; conditions: HCT116 and SW480, Matrigel transwell, 48 h; n = 3 independent experiments
Protocol: as §1
Cells (1 × 10^5) were seeded in serum-free medium in the Matrigel-coated (Corning, 354480) transwell chambers (24-well insert, 8-µm pore size; BD Biosciences) for invasion experiments. The lower chamber was filled with RPMI1640 or DMEM containing 20% FBS. The migration of HCT116 and SW480 cells was measured in three random visual fields and quantified by microscopy after 48 h of incubation, followed by staining with DAPI or crystal violet. The invasive capacity of the cells was assessed using ImageJ software for quantification.

[6] = tested on: ACVR1C–SMAD2/3 pathway in HCT116 and SW480 cells; assay: Immunoblotting p-SMAD2/3 (ACVR1C pathway); format: cell-based, human; conditions: HCT116 and SW480 cells, immunoblotting; GREM1-CM + GREM1 BAb or + SB505124 (1 µM)
Protocol: as §1, §2

SNAI1 promoter = assay: ChIP–qPCR, SMAD2/3/4 binding to SNAI1 promoter; format: cell-based, human; conditions: SW480 cells, SB505124 10 µM, 24 h, n = 3 independent experiments
Protocol: SW480 cells were starved in DMEM with 1% FCS overnight before treatment with vehicle, 10 µM SB505124 for 24 h. Cells were fixed in 1% paraformaldehyde for 10 min at RT for DNA-protein cross-linking, followed by quenching with glycine. Cross-linking chromatin was prepared using the SimpleChIP® Enzymatic Chromatin IP Kit (CST, 9002) according to the manufacturer’s instructions. For immunoprecipitation, 10 µg chromatin was incubated with 10 µL anti-histone H3 rabbit IgG (CST, 14269, positive control), 2 µL normal Rabbit IgG (CST, 2729) or 5 µL anti-SMAD2/3 rabbit IgG (CST, 8685) at 4 °C overnight. 2% chromatin prior to immunoprecipitation was used as input. Chromatin-protein-antibody complex was captured by protein G magnetic beads, and chromatin was released by reversal of cross-links and purified using the SimpleChIP® Enzymatic Chromatin IP Kit (CST, 9002) according to the manufacturer’s instructions. DNA was quantified by qPCR with primers targeting predicted SMAD2/3/4 binding regions on GREM1 or SNAI1 promoters. DNA levels were normalized to the input, and the fold-change of enrichment was calculated over the control. ChIP–qPCR primers are listed in Supplementary Table 2.

HCT116 cells = assay: Scratch assay, HCT116; format: cell-based, human; conditions: HCT116, scratch assay 24 h; n = 3 independent experiments
Protocol: as §1, §3

## Cc1cccc(-c2[nH]c(C(C)(C)C)nc2-c2ccc3c(c2)OCO3)n1 [SB505124]
HCT116 and SW480 cells [1]
  GREM1-CM-induced EMT, effect of treatment: significantly blocked GREM1-CM–induced p-SMAD2/3 activation and EMT
SW480 cells [2]
  GREM1-CM-induced migration, effect of inhibitor: abolished; also recorded: suppressed
[3]
  selectivity of SMAD2/3 phosphorylation block: selectively blocks the type I TGFβ/Activin receptors-mediated SMAD2/3 phosphorylation
SW480 cells [4]
  rhGREM1-induced GREM1 expression, effect of inhibitor: completely reversed the effect of rhGREM1
HCT116 and SW480 cells [5]
  GREM1-CM-induced invasion, effect of inhibitor: abolished; also recorded: significantly reduced
[6]
  GREM1-CM-induced p-SMAD2/3, effect of inhibitor: significantly blocked GREM1-CM–induced p-SMAD2/3 activation and EMT
SNAI1 promoter
  SMAD2/3/4 binding to SNAI1 promoter −787 site: significantly decreased this binding
HCT116 cells
  GREM1-CM-induced migration, effect of inhibitor: abolished; also recorded: suppressed
